Data on 18 compounds can be found in the Kinase Knowledgebase extract (Sharma et al. 2016).

One experiment addresses PIK3CG (human) (UniProt P48736). The experiment in a line: Assessment of PIK3CG Kinase Activity.
The target in the next experiment is PIK3CD (Human) (UniProt O00329). Nature of the experiment: Assessment of PIK3CD Kinase Activity.
The target of a further experiment is PIK3CB (Human) (UniProt P42338). Nature of the experiment: Assessment of PIK3CB Kinase Activity.
Another experiment addresses PIK3CA (human) (UniProt P42336). Nature of the experiment: Assessment of PIK3CA Kinase Activity.

A value given as a limit tells only on which side of the number the result lay.

Sequence of PIK3CD (Human) (O00329 whole entry, looked up): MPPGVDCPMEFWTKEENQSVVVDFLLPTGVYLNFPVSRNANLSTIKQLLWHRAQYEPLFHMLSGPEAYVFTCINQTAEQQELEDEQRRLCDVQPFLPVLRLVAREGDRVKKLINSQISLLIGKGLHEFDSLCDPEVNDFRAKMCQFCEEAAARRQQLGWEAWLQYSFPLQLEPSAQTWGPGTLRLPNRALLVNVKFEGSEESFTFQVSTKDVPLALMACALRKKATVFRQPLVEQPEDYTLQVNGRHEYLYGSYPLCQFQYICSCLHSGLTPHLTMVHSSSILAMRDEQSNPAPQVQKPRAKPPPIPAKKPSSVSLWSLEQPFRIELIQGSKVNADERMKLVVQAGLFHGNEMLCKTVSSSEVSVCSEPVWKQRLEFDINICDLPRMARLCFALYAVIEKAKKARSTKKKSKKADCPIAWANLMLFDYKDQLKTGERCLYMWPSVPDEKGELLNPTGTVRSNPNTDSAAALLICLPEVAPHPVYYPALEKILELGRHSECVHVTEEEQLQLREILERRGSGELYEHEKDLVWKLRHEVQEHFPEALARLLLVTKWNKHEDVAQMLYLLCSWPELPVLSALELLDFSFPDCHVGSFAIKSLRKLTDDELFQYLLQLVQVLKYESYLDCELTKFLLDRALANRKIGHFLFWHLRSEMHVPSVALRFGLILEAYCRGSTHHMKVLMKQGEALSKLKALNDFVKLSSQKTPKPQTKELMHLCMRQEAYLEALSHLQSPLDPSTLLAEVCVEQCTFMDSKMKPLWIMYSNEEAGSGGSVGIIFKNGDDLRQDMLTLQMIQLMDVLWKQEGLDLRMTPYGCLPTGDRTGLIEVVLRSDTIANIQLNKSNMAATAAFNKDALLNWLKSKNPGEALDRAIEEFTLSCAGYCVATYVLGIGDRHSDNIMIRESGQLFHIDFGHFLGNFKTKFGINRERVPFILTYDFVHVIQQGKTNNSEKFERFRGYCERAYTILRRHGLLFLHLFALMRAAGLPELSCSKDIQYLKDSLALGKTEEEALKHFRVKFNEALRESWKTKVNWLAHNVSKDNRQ
Sequence of PIK3CB (Human) (P42338 whole entry, looked up): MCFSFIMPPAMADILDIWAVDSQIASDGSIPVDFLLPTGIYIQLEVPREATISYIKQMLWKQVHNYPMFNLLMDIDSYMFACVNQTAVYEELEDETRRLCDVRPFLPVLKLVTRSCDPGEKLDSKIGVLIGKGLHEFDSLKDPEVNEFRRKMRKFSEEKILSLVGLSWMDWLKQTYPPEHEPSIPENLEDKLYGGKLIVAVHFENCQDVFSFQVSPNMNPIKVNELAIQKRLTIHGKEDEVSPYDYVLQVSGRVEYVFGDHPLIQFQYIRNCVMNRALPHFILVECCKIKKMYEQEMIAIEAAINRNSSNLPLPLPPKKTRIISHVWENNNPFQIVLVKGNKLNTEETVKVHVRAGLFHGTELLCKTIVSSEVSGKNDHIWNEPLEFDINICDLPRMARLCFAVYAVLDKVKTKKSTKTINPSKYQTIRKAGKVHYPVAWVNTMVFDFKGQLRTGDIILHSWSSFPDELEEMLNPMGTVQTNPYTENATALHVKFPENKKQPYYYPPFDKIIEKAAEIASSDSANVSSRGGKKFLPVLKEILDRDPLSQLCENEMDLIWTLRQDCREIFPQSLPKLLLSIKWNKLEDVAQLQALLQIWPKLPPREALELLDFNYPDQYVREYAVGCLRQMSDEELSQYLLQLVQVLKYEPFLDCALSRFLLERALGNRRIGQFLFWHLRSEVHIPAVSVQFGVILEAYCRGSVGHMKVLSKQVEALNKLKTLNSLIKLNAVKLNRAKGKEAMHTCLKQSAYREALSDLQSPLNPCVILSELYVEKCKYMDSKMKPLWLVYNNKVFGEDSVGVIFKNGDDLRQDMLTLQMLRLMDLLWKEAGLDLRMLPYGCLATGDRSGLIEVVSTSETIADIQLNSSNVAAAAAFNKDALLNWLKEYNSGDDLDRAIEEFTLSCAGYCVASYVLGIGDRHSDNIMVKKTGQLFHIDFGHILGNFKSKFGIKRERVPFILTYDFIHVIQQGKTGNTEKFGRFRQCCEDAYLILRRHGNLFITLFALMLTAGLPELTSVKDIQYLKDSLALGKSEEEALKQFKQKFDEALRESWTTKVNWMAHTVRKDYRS
Sequence of PIK3CG (human) (P48736 whole entry, looked up): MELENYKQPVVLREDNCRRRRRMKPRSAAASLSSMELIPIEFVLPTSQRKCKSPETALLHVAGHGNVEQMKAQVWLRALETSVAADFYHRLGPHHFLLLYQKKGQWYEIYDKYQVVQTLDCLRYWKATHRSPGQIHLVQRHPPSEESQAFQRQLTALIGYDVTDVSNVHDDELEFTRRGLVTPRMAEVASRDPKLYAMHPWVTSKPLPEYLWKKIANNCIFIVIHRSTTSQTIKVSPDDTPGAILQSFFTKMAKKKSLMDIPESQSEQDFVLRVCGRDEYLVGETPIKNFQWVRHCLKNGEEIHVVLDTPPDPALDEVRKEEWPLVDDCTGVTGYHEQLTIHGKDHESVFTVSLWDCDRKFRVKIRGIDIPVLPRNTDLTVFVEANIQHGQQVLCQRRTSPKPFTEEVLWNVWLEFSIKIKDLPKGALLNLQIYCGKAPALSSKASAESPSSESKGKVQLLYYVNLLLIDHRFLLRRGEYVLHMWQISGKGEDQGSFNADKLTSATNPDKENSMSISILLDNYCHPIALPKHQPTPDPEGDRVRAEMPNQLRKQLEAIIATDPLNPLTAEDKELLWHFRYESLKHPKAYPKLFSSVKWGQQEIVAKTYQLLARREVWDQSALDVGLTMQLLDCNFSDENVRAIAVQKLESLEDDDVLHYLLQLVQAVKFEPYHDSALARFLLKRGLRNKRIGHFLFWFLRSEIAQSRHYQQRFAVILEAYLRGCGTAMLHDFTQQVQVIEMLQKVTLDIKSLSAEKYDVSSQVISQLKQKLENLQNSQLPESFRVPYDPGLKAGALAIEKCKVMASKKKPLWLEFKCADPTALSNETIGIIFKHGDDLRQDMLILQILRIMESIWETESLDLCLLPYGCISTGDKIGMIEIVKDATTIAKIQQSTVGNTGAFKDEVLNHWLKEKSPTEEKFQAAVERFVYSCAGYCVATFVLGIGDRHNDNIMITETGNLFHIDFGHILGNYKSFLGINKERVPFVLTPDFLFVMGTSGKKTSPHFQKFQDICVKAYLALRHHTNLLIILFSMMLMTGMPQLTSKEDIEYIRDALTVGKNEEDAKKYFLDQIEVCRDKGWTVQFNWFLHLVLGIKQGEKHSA
Sequence of PIK3CA (human) (P42336 whole entry, looked up): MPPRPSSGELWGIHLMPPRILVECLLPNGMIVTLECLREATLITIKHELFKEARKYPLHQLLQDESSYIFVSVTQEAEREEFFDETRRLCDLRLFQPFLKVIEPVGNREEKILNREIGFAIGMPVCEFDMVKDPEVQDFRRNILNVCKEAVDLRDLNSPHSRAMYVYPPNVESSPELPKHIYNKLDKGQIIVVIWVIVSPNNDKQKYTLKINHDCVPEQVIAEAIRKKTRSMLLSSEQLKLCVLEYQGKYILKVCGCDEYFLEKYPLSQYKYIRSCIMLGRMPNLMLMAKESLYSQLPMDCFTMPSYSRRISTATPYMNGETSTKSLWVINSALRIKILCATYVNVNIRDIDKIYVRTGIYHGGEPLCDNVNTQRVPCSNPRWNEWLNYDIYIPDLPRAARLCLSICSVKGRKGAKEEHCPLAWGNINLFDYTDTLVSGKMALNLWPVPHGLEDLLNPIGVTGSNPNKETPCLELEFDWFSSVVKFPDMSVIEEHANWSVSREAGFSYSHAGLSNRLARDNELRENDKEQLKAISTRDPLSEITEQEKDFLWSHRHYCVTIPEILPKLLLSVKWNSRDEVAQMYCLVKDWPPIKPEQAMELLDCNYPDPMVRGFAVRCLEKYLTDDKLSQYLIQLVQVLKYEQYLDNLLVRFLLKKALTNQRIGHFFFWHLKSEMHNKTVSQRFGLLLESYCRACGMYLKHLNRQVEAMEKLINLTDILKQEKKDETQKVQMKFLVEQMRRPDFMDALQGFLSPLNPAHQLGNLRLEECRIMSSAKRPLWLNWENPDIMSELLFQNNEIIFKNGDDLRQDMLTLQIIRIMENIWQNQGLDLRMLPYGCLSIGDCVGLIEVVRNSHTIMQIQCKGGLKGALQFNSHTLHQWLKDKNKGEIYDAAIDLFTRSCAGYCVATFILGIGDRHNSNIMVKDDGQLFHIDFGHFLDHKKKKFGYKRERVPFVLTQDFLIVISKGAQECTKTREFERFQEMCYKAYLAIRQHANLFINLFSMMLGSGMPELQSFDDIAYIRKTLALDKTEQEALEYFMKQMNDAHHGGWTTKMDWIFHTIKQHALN

As to `CC(C)(C)NS(=O)(=O)c1cncc(-c2ccc3nc(NC(=O)NCCC(=O)N4CCCC4)nn3c2)c1`, the IC50 (as a rule, the concentration that inhibits the measured activity by half) on PIK3CG (human) is < 100 nM; against PIK3CD (Human), < 100 nM; against PIK3CB (Human), 100 to 1000 nM.

For the compound `CC(C)(C)NS(=O)(=O)c1cncc(-c2ccc3nc(NC(=O)NCC(=O)NC4CCNCC4)nn3c2)c1`, the half-inhibitory concentration (IC50) at PIK3CG (human) was < 100 nM; at PIK3CD (Human), 100 to 1000 nM; against PIK3CB (Human), 100 to 1000 nM.

For `CN(C(=O)CNC(=O)Nc1nc2ccc(-c3cncc(S(=O)(=O)NC(C)(C)C)c3)cn2n1)C1CC1`, the IC50 at PIK3CG (human) was < 100 nM; on PIK3CD (Human) it was < 100 nM; against PIK3CA (human), 100 to 1000 nM.

For the compound `CC(C)(C)NS(=O)(=O)c1cncc(-c2ccc3nc(NC(=O)NCCC(=O)N4CCCCC4)nn3c2)c1`, the IC50 at PIK3CG (human) and against PIK3CD (Human) was < 100 nM each time.

In the case of `CC(C)(C)NS(=O)(=O)c1cncc(-c2ccc3nc(NC(=O)NCC(=O)N4CCOCC4)nn3c2)c1`, the half-maximal inhibitory concentration (IC50) is < 100 nM at PIK3CG (human), < 100 nM on PIK3CD (Human), 100 to 1000 nM at PIK3CA (human) and 100 to 1000 nM against PIK3CB (Human).

Regarding `O=C(NCC(=O)N1CCCC1)Nc1nc2ccc(-c3cncc(C(F)(F)F)c3)cn2n1`, the IC50 at PIK3CG (human) was < 100 nM; on PIK3CB (Human) it was > 10000 nM.

Consider `CS(=O)(=O)c1cncc(-c2ccc3nc(NC(=O)NCC(=O)N4CCOCC4)nn3c2)c1`, for which the IC50 is < 100 nM against PIK3CG (human) and 100 to 1000 nM on PIK3CD (Human).

On to `CN(C)[C@H]1CCN(C(=O)CNC(=O)Nc2nc3ccc(-c4cncc(S(=O)(=O)NC(C)(C)C)c4)cn3n2)C1`, for which the IC50 against PIK3CG (human) was < 100 nM; against PIK3CD (Human) it was < 100 nM; on PIK3CA (human) it was 100 to 1000 nM; against PIK3CB (Human), 100 to 1000 nM.

As for `CC(C)(C)NS(=O)(=O)c1cncc(-c2ccc3nc(NC(=O)NCC(=O)NC4CC4)nn3c2)c1`, the IC50 on PIK3CG (human) is < 100 nM; on PIK3CD (Human), 100 to 1000 nM; on PIK3CB (Human), 100 to 1000 nM.

Regarding `CC(C)(C)NS(=O)(=O)c1cncc(-c2ccc3nc(NC(=O)NCC(=O)N4CCCCC4)nn3c2)c1`, the IC50 against PIK3CG (human) was < 100 nM; on PIK3CD (Human), < 100 nM; against PIK3CA (human), 100 to 1000 nM.

Take `CC(C)(C)NS(=O)(=O)c1cncc(-c2cc(F)c3nc(NC(=O)NCC(=O)N4CCOCC4)nn3c2)c1`: the IC50 against PIK3CG (human) and on PIK3CD (Human) was < 100 nM in each case.

As to `CC(C)NS(=O)(=O)c1cncc(-c2ccc3nc(NC(=O)NCC(=O)N4CCOCC4)nn3c2)c1`, the IC50 at PIK3CG (human) is < 100 nM; against PIK3CD (Human) it was < 100 nM; on PIK3CA (human) it was 100 to 1000 nM.

As for `CN1CCN(C(=O)CNC(=O)Nc2nc3ccc(-c4cncc(S(=O)(=O)NC(C)(C)C)c4)cn3n2)CC1`, the IC50 against PIK3CG (human) is < 100 nM; at PIK3CD (Human) it was < 100 nM; on PIK3CA (human), 100 to 1000 nM; on PIK3CB (Human), 100 to 1000 nM.

Consider `CC(C)(C)NS(=O)(=O)c1cncc(-c2cc(F)c3nc(NC(=O)NCC(=O)N4CCCC4)nn3c2)c1`, for which the half-maximal inhibitory concentration (IC50) against PIK3CG (human) is < 100 nM; on PIK3CD (Human) it was 100 to 1000 nM.

`CC(C)(C)NS(=O)(=O)c1cncc(-c2ccc3nc(NC(=O)NCC(=O)N4CCC(N)CC4)nn3c2)c1`: the values for the IC50 on PIK3CG (human), at PIK3CD (Human) and at PIK3CB (Human) were < 100 nM, < 100 nM and 100 to 1000 nM, respectively.

For `CC(C)NS(=O)(=O)c1cncc(-c2ccc3nc(NC(=O)NCC(=O)N4CCCC4)nn3c2)c1`, the IC50 on PIK3CG (human) and against PIK3CD (Human) was < 100 nM in each case.

For the compound `COCCN1CCN(C(=O)CNC(=O)Nc2nc3ccc(-c4cncc(S(=O)(=O)NC(C)(C)C)c4)cn3n2)CC1`, the IC50 was < 100 nM at PIK3CG (human), < 100 nM on PIK3CD (Human), 100 to 1000 nM against PIK3CA (human) and 100 to 1000 nM at PIK3CB (Human).

Turning to `CC(C)(C)NS(=O)(=O)c1cncc(-c2ccc3nc(NC(=O)NCC(=O)N4CCCC4)nn3c2)c1`, the IC50 on PIK3CG (human) and at PIK3CD (Human) was < 100 nM in each case.
